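Step 1: Grow cells in 96-well plates. Step 2: Expose to compound for 48 hours at 5 concentrations. Step 3: Interpolate endpoints linearly; if unreached, use highest concentration. TGI: total growth inhibition.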
What was measured:
Assay in all cases: growth of human tumour cells (NCI), 48 h
MCF7 breast = test system: MCF7 breast
786-0 renal = test system: 786-0 renal
A498 renal = test system: A498 renal
UACC-62 melanoma = test system: UACC-62 melanoma
OVCAR-5 ovarian = test system: OVCAR-5 ovarian
CAKI-1 renal = test system: CAKI-1 renal
K-562 leukemia = test system: K-562 leukemia
SK-MEL-5 melanoma = test system: SK-MEL-5 melanoma
COLO 205 colon = test system: COLO 205 colon
SW-620 colon = test system: SW-620 colon
KM12 colon = test system: KM12 colon
NCI-H23 lung = test system: NCI-H23 lung
UACC-257 melanoma = test system: UACC-257 melanoma
MDA-N = test system: MDA-N
RXF 393 renal = test system: RXF 393 renal
HT29 colon = test system: HT29 colon
TK-10 renal = test system: TK-10 renal
OVCAR-3 ovarian = test system: OVCAR-3 ovarian
HOP-62 NSCLC = test system: HOP-62 NSCLC
DU-145 prostate = test system: DU-145 prostate
MDA-MB-435 = test system: MDA-MB-435
HL-60(TB) leukemia = test system: HL-60(TB) leukemia
RPMI-8226 leukemia = test system: RPMI-8226 leukemia
MDA-MB-231 breast = test system: MDA-MB-231 breast
SN12C renal = test system: SN12C renal
MALME-3M melanoma = test system: MALME-3M melanoma
U251 CNS = test system: U251 CNS
SK-MEL-28 melanoma = test system: SK-MEL-28 melanoma
HCC-2998 colon = test system: HCC-2998 colon
PC-3 prostate = test system: PC-3 prostate
OVCAR-4 ovarian = test system: OVCAR-4 ovarian
SF-539 CNS = test system: SF-539 CNS
BT-549 breast = test system: BT-549 breast
SK-MEL-2 melanoma = test system: SK-MEL-2 melanoma
NCI-H226 lung = test system: NCI-H226 lung
EKVX NSCLC = test system: EKVX NSCLC
MOLT-4 leukemia = test system: MOLT-4 leukemia
SNB-75 CNS = test system: SNB-75 CNS
NCI/ADR-RES ovarian = test system: NCI/ADR-RES ovarian
CCRF-CEM leukemia = test system: CCRF-CEM leukemia
LOX IMVI melanoma = test system: LOX IMVI melanoma
T-47D breast = test system: T-47D breast
SF-295 CNS = test system: SF-295 CNS
SF-268 CNS = test system: SF-268 CNS
OVCAR-8 ovarian = test system: OVCAR-8 ovarian
SK-OV-3 ovarian = test system: SK-OV-3 ovarian
HCT-116 colon = test system: HCT-116 colon
HCT-15 colon = test system: HCT-15 colon
A549 NSCLC = test system: A549 NSCLC
IGROV1 ovarian = test system: IGROV1 ovarian
HOP-92 NSCLC = test system: HOP-92 NSCLC
M14 melanoma = test system: M14 melanoma
NCI-H460 lung = test system: NCI-H460 lung
UO-31 renal = test system: UO-31 renal
SNB-19 CNS = test system: SNB-19 CNS
ACHN renal = test system: ACHN renal

## CO/C(N)=C(\C#N)N=Cc1cccnc1
MCF7 breast
  TGI: > 100 µM
786-0 renal
  TGI: > 100 µM
A498 renal
  TGI: > 100 µM
UACC-62 melanoma
  TGI: > 100 µM
OVCAR-5 ovarian
  TGI: > 100 µM
CAKI-1 renal
  TGI: > 100 µM
K-562 leukemia
  TGI: > 100 µM
SK-MEL-5 melanoma
  TGI: > 100 µM
COLO 205 colon
  TGI: > 100 µM
SW-620 colon
  TGI: > 100 µM
KM12 colon
  TGI: > 100 µM
NCI-H23 lung
  TGI: > 100 µM
UACC-257 melanoma
  TGI: > 100 µM
MDA-N
  TGI: > 100 µM
RXF 393 renal
  TGI: > 100 µM
HT29 colon
  TGI: > 100 µM
TK-10 renal
  TGI: > 100 µM
OVCAR-3 ovarian
  TGI: > 100 µM
HOP-62 NSCLC
  TGI: > 100 µM
DU-145 prostate
  TGI: > 100 µM
MDA-MB-435
  TGI: > 100 µM
HL-60(TB) leukemia
  TGI: > 100 µM
RPMI-8226 leukemia
  TGI: > 100 µM
MDA-MB-231 breast
  TGI: > 100 µM
SN12C renal
  TGI: > 100 µM
MALME-3M melanoma
  TGI: > 100 µM
U251 CNS
  TGI: > 100 µM
SK-MEL-28 melanoma
  TGI: > 100 µM
HCC-2998 colon
  TGI: > 100 µM
PC-3 prostate
  TGI: > 100 µM
OVCAR-4 ovarian
  TGI: > 100 µM
SF-539 CNS
  TGI: > 100 µM
BT-549 breast
  TGI: > 100 µM
SK-MEL-2 melanoma
  TGI: > 100 µM
NCI-H226 lung
  TGI: > 100 µM
EKVX NSCLC
  TGI: > 100 µM
MOLT-4 leukemia
  TGI: > 100 µM
SNB-75 CNS
  TGI: > 100 µM
NCI/ADR-RES ovarian
  TGI: > 100 µM
CCRF-CEM leukemia
  TGI: > 100 µM
LOX IMVI melanoma
  TGI: > 100 µM
T-47D breast
  TGI: > 100 µM
SF-295 CNS
  TGI: > 100 µM
SF-268 CNS
  TGI: > 100 µM
OVCAR-8 ovarian
  TGI: > 100 µM
SK-OV-3 ovarian
  TGI: > 100 µM
HCT-116 colon
  TGI: > 100 µM
HCT-15 colon
  TGI: > 100 µM
A549 NSCLC
  TGI: > 100 µM
IGROV1 ovarian
  TGI: > 100 µM
HOP-92 NSCLC
  TGI: > 100 µM
M14 melanoma
  TGI: > 100 µM

## COc1ccc(Cc2nc3cc([N+](=O)[O-])ccc3n2C[C@@H]2CCCN3CCCCC23)cc1 (some centres undefined)
NCI-H460 lung
  TGI: > 100 µM
MCF7 breast
  TGI: > 100 µM
786-0 renal
  TGI: 40 µM
A498 renal
  TGI: 35.2 µM
UACC-62 melanoma
  TGI: 31.3 µM
OVCAR-5 ovarian
  TGI: 82 µM
CAKI-1 renal
  TGI: 45.3 µM
K-562 leukemia
  TGI: 57.6 µM
SK-MEL-5 melanoma
  TGI: 27.9 µM
COLO 205 colon
  TGI: 27 µM
SW-620 colon
  TGI: 81.8 µM
KM12 colon
  TGI: 29.8 µM
NCI-H23 lung
  TGI: 87.2 µM
UACC-257 melanoma
  TGI: 31.5 µM
MDA-N
  TGI: 33.8 µM
RXF 393 renal
  TGI: 39.8 µM
HT29 colon
  TGI: 38.4 µM
TK-10 renal
  TGI: 92.8 µM
OVCAR-3 ovarian
  TGI: 41.1 µM
HOP-62 NSCLC
  TGI: 43.6 µM
DU-145 prostate
  TGI: > 100 µM
MDA-MB-435
  TGI: 38.1 µM
HL-60(TB) leukemia
  TGI: 19 µM
MDA-MB-231 breast
  TGI: 43 µM
MALME-3M melanoma
  TGI: 32.1 µM
U251 CNS
  TGI: 50.6 µM
SK-MEL-28 melanoma
  TGI: 35.1 µM
HCC-2998 colon
  TGI: 34.1 µM
PC-3 prostate
  TGI: > 100 µM
OVCAR-4 ovarian
  TGI: 61.3 µM
BT-549 breast
  TGI: 37.5 µM
SK-MEL-2 melanoma
  TGI: 33.2 µM
NCI-H226 lung
  TGI: > 100 µM
UO-31 renal
  TGI: 21.1 µM
EKVX NSCLC
  TGI: 76.5 µM
MOLT-4 leukemia
  TGI: 60.1 µM
SNB-75 CNS
  TGI: > 100 µM
NCI/ADR-RES ovarian
  TGI: 60.6 µM
CCRF-CEM leukemia
  TGI: 29.2 µM
LOX IMVI melanoma
  TGI: 36.4 µM
T-47D breast
  TGI: > 100 µM
SF-295 CNS
  TGI: 35.8 µM
OVCAR-8 ovarian
  TGI: > 100 µM
SK-OV-3 ovarian
  TGI: 46.4 µM
HCT-116 colon
  TGI: 38.2 µM
HCT-15 colon
  TGI: 56.5 µM
SNB-19 CNS
  TGI: 84.8 µM
A549 NSCLC
  TGI: 35 µM
IGROV1 ovarian
  TGI: 48.1 µM
HOP-92 NSCLC
  TGI: 76.8 µM
M14 melanoma
  TGI: 27.2 µM
ACHN renal
  TGI: > 100 µM

From PubChem BioAssay (NCI)
